Test results taken from BindingDB's records for doi:10.1016/j.bmcl.2009.05.085 (Targacept, 2009).

Target: Neuronal acetylcholine receptor subunit alpha-7 (Mus musculus, UniProt P49582)
Assay: Displacement of [125I]alpha-bungarotoxin from alpha7 nAChR in C57BL/6J mouse hippocampal membrane

Chain of Neuronal acetylcholine receptor subunit alpha-7 (P49582 whole entry): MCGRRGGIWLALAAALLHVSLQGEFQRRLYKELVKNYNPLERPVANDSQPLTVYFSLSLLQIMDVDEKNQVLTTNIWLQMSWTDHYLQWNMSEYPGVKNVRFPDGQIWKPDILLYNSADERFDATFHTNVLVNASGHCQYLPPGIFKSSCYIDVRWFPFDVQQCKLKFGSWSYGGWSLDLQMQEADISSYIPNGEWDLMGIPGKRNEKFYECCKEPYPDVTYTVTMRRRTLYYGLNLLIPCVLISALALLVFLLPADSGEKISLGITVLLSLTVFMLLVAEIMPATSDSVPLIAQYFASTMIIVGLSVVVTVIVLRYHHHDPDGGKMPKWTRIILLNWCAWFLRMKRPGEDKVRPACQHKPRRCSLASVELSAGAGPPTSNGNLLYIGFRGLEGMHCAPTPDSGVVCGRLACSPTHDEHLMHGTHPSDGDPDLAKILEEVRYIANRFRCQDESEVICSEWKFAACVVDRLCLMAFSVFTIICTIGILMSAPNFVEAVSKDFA

## O=C(O)[C@@H](O)[C@H](O)[C@H](O)[C@@H](O)C(=O)O
  Ki: > 10 µM
